Where two headings read alike, the source gives them in different places.
Experiments:
[1] = IAM chromatography on new IAM.PC.DD2 columns (gradient HPLC, CHI (IAM)); type: physicochemical; parameters: key to CHI (IAM) “new” / P20511-014-3 CHI (IAM): CHI (IAM) from retention times calibrated to predefined CHI standards; settings: for P20511-014-3 CHI (IAM): new IAM.PC.DD2 column batch P20511-014-3, pH 7.4; for R20511-014-3 CHI (IAM): new IAM.PC.DD2 column batch R20511-014-3, pH 7.4; for CHI (IAM) deviation between reference and new IAM.PC.DD2 columns / CHI (IAM) “new”: system suitability test compounds; for CHI (IAM) “new”: new IAM.PC.DD2 columns, pH 7.4; for outlier in correlation of reference CHI (IAM) with CHI (IAM) on column R20511-014-3: lower CHI (IAM) on new batches, outlier if difference greater than 7.2 CHI IAM units
Method: The IAM binding was measured using IAM.PC.DD2 HPLC columns (Regis Technologies, Inc., IL, USA) with dimensions of 100 x 4.6 mm, particle size 10 μm with 300 Å pore size.
Two batches of IAM.PC.DD2 columns were studied (R20511-014-3 and P20511-014-3) that had been prepared using the new batches of silica support.
The retention times were standardized using the IAM calibration mixture, containing octanophenone, heptanophenone, hexanophenone, valerophenone, butyrophenone, propiophenone, acetophenone, acetanilide and paracetamol. The retention times of the compounds were plotted against the isocratically determined and predefined CHI (IAM) values listed in Table 1. The slope and intercept of the obtained straight line was used to calculate the CHI IAM values of new compounds.

[2] = cited from earlier work; for CHI (IAM) from ref [13]: reference CHI (IAM), old columns
[3] = molecular target: T1, human serum albumin (HSA) (Homo sapiens, UniProt P02768); experiment: Protein binding on chemically bonded HSA column (Chiralpak-HSA); settings: remeasured in this study, pH 7.4
T1 sequence (P02768 25-609): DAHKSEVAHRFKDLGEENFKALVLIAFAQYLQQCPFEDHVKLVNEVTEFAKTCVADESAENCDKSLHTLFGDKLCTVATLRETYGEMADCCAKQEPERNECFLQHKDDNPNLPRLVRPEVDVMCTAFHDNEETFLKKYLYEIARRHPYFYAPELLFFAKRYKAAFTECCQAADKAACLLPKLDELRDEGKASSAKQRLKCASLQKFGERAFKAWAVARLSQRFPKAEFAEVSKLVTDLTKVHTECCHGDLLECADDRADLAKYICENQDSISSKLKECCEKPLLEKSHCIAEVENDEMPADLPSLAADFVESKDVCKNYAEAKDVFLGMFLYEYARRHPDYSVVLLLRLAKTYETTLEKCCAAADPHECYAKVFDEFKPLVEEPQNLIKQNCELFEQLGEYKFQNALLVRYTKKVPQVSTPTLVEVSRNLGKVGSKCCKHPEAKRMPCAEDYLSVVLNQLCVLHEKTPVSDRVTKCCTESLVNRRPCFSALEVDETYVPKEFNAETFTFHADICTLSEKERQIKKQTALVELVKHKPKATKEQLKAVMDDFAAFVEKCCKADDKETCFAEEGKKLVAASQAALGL
Method: Mobile phase A was 50 mM ammonium acetate adjusted to pH 7.4 and mobile phase B was 2-propanol. The flow rate was 1.5 mL/min and the run time was 6 min. The 2-propanol gradient was applied from 0 to 35% from 0 to 3.00 min and kept at 35% until 4.00 min.

[4] = molecular target: T1, human serum albumin (HSA); settings: cited from earlier work
[5] = human

| SMILES | P20511-014-3 CHI (IAM) [1] | R20511-014-3 CHI (IAM) [1] | CHI (IAM) from ref [13] [2] | log K HSA [3] | log K HSA from ref [13] [4] | CHI (IAM) deviation between reference and new IAM.PC.DD2 columns [1] | CHI (IAM) “new” [1] | reference log Vdss [5] | outlier in correlation of reference CHI (IAM) with CHI (IAM) on column R20511-014-3 [1] | CHI (IAM) ([2]; system suitability test compounds, CHI (IAM) reference from the literature) | CHI (IAM) ([2]; previously published, IAM column manufactured 2004-2012) |
| --- | --- | --- | --- | --- | --- | --- | --- | --- | --- | --- | --- |
| C[C@]12C=CC(=O)C=C1CC[C@@H]1[C@@H]2[C@@H](O)C[C@@]2(C)[C@H]1CC[C@]2(O)C(=O)CO [Prednisolone] | 27.20 | 27.31 | 28.00 |  |  |  |  |  |  |  |  |
| CC(=O)N1CCN(c2ccc(OCC3COC(Cn4ccnc4)(c4ccc(Cl)cc4Cl)O3)cc2)CC1 (stereo not drawn) [Ketoconazole] | 39.26 | 39.50 | 42.90 |  |  |  |  |  |  |  |  |
| C[C@]12CCC(=O)C=C1CC[C@@H]1[C@@H]2[C@@H](O)C[C@@]2(C)[C@H]1CC[C@]2(O)C(=O)CO [Hydrocortisone] | 27.02 | 27.23 | 27.90 | 2.59 |  |  |  |  |  |  |  |
| O=C1C(CC[S+]([O-])c2ccccc2)C(=O)N(c2ccccc2)N1c1ccccc1 (stereo not drawn) [Sulfinpyrazone] | 26.89 | 26.19 | 26.10 | 2.66 | 3.17 |  |  |  |  |  |  |
| CC(=O)CC(c1ccccc1)c1c(O)c2ccccc2oc1=O (stereo not drawn) [Warfarin] | 24.18 | 23.47 |  |  |  | very similar | 24.0 | -0.78 |  |  |  |
| COc1ccc2cc(CCC(C)=O)ccc2c1 [Nabumetone] | 35.96 | 35.90 | 38.40 | 2.14 | 0.49 |  |  |  |  |  |  |
| COc1cc(Cc2cnc(N)nc2N)cc(OC)c1OC [Trimethoprim] | 20.52 | 20.99 | 20.80 | 0.95 | 4.45 |  |  |  |  |  |  |
| CN(C)CCc1c[nH]c2ccc(C[C@H]3COC(=O)N3)cc12 [zolmitriptan] |  |  |  |  |  |  |  |  | outliers |  |  |
| CCCC1O[C@@H]2C[C@H]3[C@@H]4CCC5=CC(=O)C=C[C@]5(C)[C@H]4[C@@H](O)C[C@]3(C)[C@]2(C(=O)CO)O1 (stereo partly drawn) [Budesonide] |  |  |  |  |  | very similar | 38 |  |  | 38.7 |  |
| CCOC(=O)c1ncn2c1CN(C)C(=O)c1cc(F)ccc1-2 [Flumazenil] | 18.27 | 18.27 | 18.40 |  |  |  |  |  |  |  |  |
| Cc1noc(NS(=O)(=O)c2ccc(N)cc2)c1C [Sulfisoxazole] | 7.37 | 6.48 | 2.90 | 3.68 |  |  |  |  |  |  |  |
| O=c1n(CCCN2CCN(c3cccc(Cl)c3)CC2)nc2ccccn12 [Trazodone] | 33.86 | 34.09 | 36.30 | 3.06 | 0.8 |  |  |  |  |  |  |
| O=C(O)Cc1ccccc1Nc1c(Cl)cccc1Cl [Diclofenac] | 35.85 | 35.18 | 33.50 |  |  |  |  | -0.67 |  |  |  |
| CN(C)CCCN1c2ccccc2CCc2ccccc21 [Imipramine] | 44.81 | 45.58 | 51.60 | 5.59 |  | > 5 CHI (IAM) unit | 45.0 |  |  |  |  |
| CC(CCc1ccccc1)NCC(O)c1ccc(O)c(C(N)=O)c1 (stereo not drawn) [Labetalol] | 37.48 | 38.29 | 43.90 |  |  |  |  |  |  |  |  |
| CC(C)NCC(O)COc1cccc2ccccc12 (stereo not drawn) [Propranolol] | 41.46 | 42.24 | 50.80 | 1.02 |  |  | 42.0 |  |  |  |  |

| SMILES | P20511-014-3 CHI (IAM) [1] | R20511-014-3 CHI (IAM) [1] | CHI (IAM) from ref [13] [2] | log K HSA [3] | log K HSA from ref [13] [4] | CHI (IAM) deviation between reference and new IAM.PC.DD2 columns [1] | CHI (IAM) “new” [1] | reference log Vdss [5] | outlier in correlation of reference CHI (IAM) with CHI (IAM) on column R20511-014-3 [1] | CHI (IAM) ([2]; system suitability test compounds, CHI (IAM) reference from the literature) | CHI (IAM) ([2]; previously published, IAM column manufactured 2004-2012) |
| --- | --- | --- | --- | --- | --- | --- | --- | --- | --- | --- | --- |
| CCN(CC)CCNC(=O)c1ccc(NC(C)=O)cc1 [Acecainide] | 17.57 | 17.72 | 23.30 | 0.52 | 0.69 |  |  |  |  |  |  |
| OCCN1CCN(CCCN2c3ccccc3Sc3ccc(Cl)cc32)CC1 [Perphenazine] | 48.97 | 49.57 | 56.30 | 2.02 | 1.6 |  |  |  |  |  |  |
| COc1cc2c(c(OC)c1OC)-c1ccc(OC)c(=O)cc1[C@@H](NC(C)=O)CC2 [Colchicine] | 23.18 | 23.45 | 23.70 |  |  |  | 23.0 |  |  |  |  |
| C[C@H]1C[C@H]2[C@@H]3CCC4=CC(=O)C=C[C@]4(C)[C@@]3(F)[C@@H](O)C[C@]2(C)[C@@]1(O)C(=O)CO [Betamethasone] | 30.05 | 30.18 | 31.70 |  |  |  |  |  |  |  |  |
| CCOC(=O)C1=C(C)NC(C)=C(C(=O)OC)C1c1cccc(Cl)c1Cl (stereo not drawn) [Felodipine] | 44.45 | 44.37 | 46.10 |  |  |  |  |  |  |  |  |
| COc1cc2nc(N3CCN(C(=O)c4ccco4)CC3)nc(N)c2cc1OC [Prazosin] | 29.35 | 29.82 | 31.60 |  |  |  |  |  |  |  |  |
| CCCc1cc(=O)[nH]c(=S)[nH]1 [Propylthiouracil] |  |  |  | 3.21 | 2.67 |  |  |  |  |  |  |
| CCCCNCC(O)c1ccc(O)cc1 (stereo not drawn) [Bamethan] | 18.03 | 18.53 |  | 0.42 |  |  |  |  |  |  |  |
| COc1ccc(Cc2nccc3cc(OC)c(OC)cc23)cc1OC [Papaverine] | 31.15 | 31.22 | 34.40 | 0.39 |  |  |  |  |  |  |  |
| NC(=O)OCC(COC(N)=O)c1ccccc1 [Felbamate] | 39.21 | 39.16 | 19.07 | 4.15 | 3.46 |  |  |  |  |  |  |
| Cn1c(=O)c2c(ncn2CC(O)CO)n(C)c1=O (stereo not drawn) [Diprophylline] | -1.98 | -1.49 | -4.00 | 4.24 | 4.1 |  |  |  |  |  |  |
| CC/C(=C(\c1ccccc1)c1ccc(OCCN(C)C)cc1)c1ccccc1 [Tamoxifen] |  |  |  | 4.82 | 1.29 |  |  |  |  |  |  |
| CCN(CC)CCNC(=O)c1ccc(N)cc1 [Procainamide] | 11.89 | 11.73 |  | 1.67 | 0.73 |  |  |  | outliers |  |  |
| Clc1ccc2c(c1)C(N1CCNCC1)=Nc1ccccc1O2 [Amoxapine] | 44.74 | 45.41 | 56.50 | 2.70 | 2.15 |  |  |  |  |  |  |
| CC(C(=O)O)c1cccc(C(=O)c2ccccc2)c1 (stereo not drawn) [Ketoprofen] | 23.89 | 22.93 | 21.90 |  |  | very similar | 20.0 |  |  |  | 21.9 |
| O=C(CCCN1CCC(O)(c2ccc(Cl)cc2)CC1)c1ccc(F)cc1 [Haloperidol] |  |  |  |  |  | very similar | 48 |  |  |  |  |

From paper PMC8915595, “Revisiting the application of Immobilized Artificial Membrane (IAM) chromatography to estimate in vivo distribution properties of drug discovery compounds based on the model of marketed drugs” (ADMET & DMPK, 2020)
